Measured values taken from US20260327211A1, “MODULATORS OF A POTASSIUM CHANNEL AND OF TRPV1 CHANNEL AND USES THEREOF” (Bsense Bio Therapeutics Ltd., priority 2023, published 2026).
“Also recorded” adds a separate entry of the source.

Key:
[1] = CYP inhibition / time-dependent inhibition, CYP3A4_Testosterone; assay type: in vitro ADME; settings: human, liver microsomes, role: inhibitor, substrate testosterone
Description: The time-dependent inactivation potency of the test compound to CYP enzymatic activities was assessed by the pre-incubation of the human liver microsomes with the test compound in the presence and absence of NADPH, followed by the incubation with the discrete marker substrates, as follows.
Pre-incubation with human liver microsomes (HLMs): The TDI inactivation potency on CYP enzymatic activities was evaluated through pre-incubation with HLMs (Corning). A liver microsome mixture at a concentration of 0.1 mg/mL, and the test compound at 8 different concentrations (0, 0.05, 0.165, 0.5, 1.65, 5.0, 16.5, or 50.0 μM) was warmed at 37° C. for 10 minutes. Concurrently, a set of known time-dependent inactivators was also prepared in duplicate for comparison. Following this, NADPH (1.0 mM) was added to one group (Group 1), and an equal volume of potassium phosphate buffer to the second group (Group 2), marking the beginning of a 30-minute pre-incubation at 37° C.
Incubation: After pre-incubation, the marker substrate, or marker substrate plus NADPH was added to the mixture, thereby initiating the incubation. The duration of the incubation was dependent on the type of CYP isoform being evaluated. For example, with the CYP3A isoform, the mixture was incubated over 3 minutes utilizing midazolam as the marker substrate (2.0 μM), verapamil as the standard inactivator (3.5 μM).
Termination of Reaction: Following the incubation, ice-cooled acetonitrile containing the internal standard (IS) was added to halt the reactions. Metabolites generated from the marker substrates were then measured via LC-MS/MS, assessed based on peak area ratios of the analyte to IS.

[2] = tested on: Spared Nerve Injury (SNI) rats; test: Spared Nerve Injury (SNI) model, von Frey; assay type: in vivo, rat
Description: All animal experiments were carried out according to the Guide for the Care and Use of Laboratory Animals (2011 edition) and approved by the Israel National Institutional Animal Care and Use Committee (IACUC). Young adult male SD rats (Envigo RMS, Israel), were used for in vivo efficacy: Spared Nerve Injury (SNI), Distal Tibial Injury (DTI) and Post-operative Pain (POP), 200-220 grams, Chronic Post-Ischemia Pain (CPIP) 275-325 grams, Monosodium iodoacetate-induced osteoarthritis (MIA-OA) 180-220 grams; for in vivo safety: 200-250 grams at study initiation. […] The health status of the animals used in this study was examined upon their arrival. Only animals in good health were acclimatized to laboratory conditions and were used in the studies. All studies were performed following at least five days of animal acclimation. During acclimation and throughout the entire study duration, animals were housed within a limited-access rodent facility and kept in groups with a maximum of 2-3 rats per polypropylene cage. The cages were fitted with solid bottoms and filled with sterile wood shavings as bedding material. Animals were provided ad libitum with a commercial, sterile rodent diet and had free access to drinking water that was supplied to each cage via polyethylene bottles with stainless steel sipper tubes. A feed lot analysis of the diet batch used in the study was included in the archives with the study data. Water was monitored periodically. Plastic cylinders for playing and hiding and wooden balls or sticks were added to the cages for environmental enrichment.
SNI: The SNI procedure consisted of ligating and dissecting the tibial and common peroneal nerves, thus sparing the sural nerve. Prior to surgery, a dose of 0.03 mg/kg buprenorphine (Temgesic®) was administered to animals as a prophylaxis to alleviate the operative and postoperative pain unrelated to neuropathy. Next, animals were anesthetized with a combination of medetomidine/ketamine sodium IP. While under anesthesia a medio caudal incision of 4-5 mm parallel to the left femur was cut on shaved and disinfected skin. The sciatic nerve was exposed from underneath the muscle layer and isolated gently from the surrounding connective tissue, using curved and blunt forceps. The tibial and common peroneal nerves were first tightly ligated with double knot of 6-0 silk suture, proximally and immediately distal to the sciatic bifurcation. Thereafter, the nerves which run as a pair as physically attached to each other were cut at sites close to the ligatures, thereby removing a length of approximately 0.5 mm of the nerves, necessary to avoid the formation of any re-connection to the nerves. This procedure led to complete denervation of areas of tibial and peroneal innervation in the plantar paw, while neuropathy was developed upon the sural territories. Special care was taken not to manipulate the sural nerve, which thus was left intact. The muscle layers and skin were sutured, and animals were allowed to recover. 0.03 mg/kg buprenorphine SC was administered on postoperative days 1-2, every 12 hours, starting from the evening of Day 0. Rehydration with 4 ml of sterile saline IP was provided directly after the surgery, continuing twice a day for 7 days. The sural nerve innervates the lateral longitudinal third of the plantar paw and therefore, mechanical sensitivity was assessed in this area.
The selection of animals was performed on day 13 post-operation before animals were placed in their experimental groups. Animals with a pain threshold of <4 grams for an operated leg following Von Frey testing were included in the study. To form homogenous treatment groups, all the selected animals were grouped using a random sampling method on study day 13, to form groups with similar pain threshold mean. For blinding purposes, the researcher who dosed the animals with test items was different than the researcher who conducted the VF tests. […]

[3] = biological target: T1, opioid mu receptor (Homo sapiens, UniProt P35372); test: Functional selectivity panel, opioid mu receptor; assay type: biochemical
T1 construct: Eurofins DiscoverX, USA (assay provider)
Description: (§1) A broad panel of 78 recombinant targets was tested for pharmacologic activity in vitro through a variety of functional assays (Eurofins DiscoverX, USA), as part of the National Institute of Neurological Disorders and Stroke (NINDS) Preclinical Screening Platform for Pain (PSPP) program. The biological targets for the in vitro profiling have been selected based on avoiding opioid receptor stimulation and targets known to be associated with adverse events or targeted by drugs of abuse. […] For each test, a reference compound was evaluated at the target of interest as a positive control.

[4] = tested on: NMDA; test: Functional selectivity panel, NMDA; assay type: biochemical; settings: up to 10 micromolar
Description: as §1

[5] = biological target: T2, nAChR(a4/b2) (Homo sapiens, UniProt P17787+P43681); test: Functional selectivity panel, nAChR(a4/b2); assay type: biochemical; settings: up to 10 micromolar
T2 construct: Eurofins DiscoverX functional panel cells
Description: as §1

[6] = tested on: COX-1/2; test: Functional selectivity panel, COX-1/2; assay type: biochemical; settings: up to 10 micromolar
Description: as §1

[7] = tested on: Dopamine D1-D5; test: Functional screening panel, Dopamine D1-D5; assay type: biochemical; settings: up to 10 micromolar
Description: as §1

[8] = tested on: Vasopressin 1-2; test: Functional screening panel, Vasopressin 1-2; assay type: biochemical; settings: up to 10 micromolar
Description: as §1

[9] = biological target: OATP2B1 (Homo sapiens, UniProt O94956); test: Transporter substrate, OATP2B1; assay type: in vitro ADME; settings: role: substrate
Description: Additionally, compound 760 was tested for its capability to act as a transporter substrate for various transporters, and was not found to be a transporter substrate for any of the tested transporters.

[10] = biological target: T3, hTRPV1 (Homo sapiens, UniProt Q8NER1); test: hTRPV1 dual activity electrophysiology, CHO cells co-expressing hKv7.2/3 and hTRPV1; assay type: cell-based; settings: 100 nM
T3 construct: CDS of NM_080704.4, inserted into the multiple cloning site of pcDNA3.1(+); host or cells: CHO/hKv7.2/3
T3 sequence (Q8NER1 whole entry): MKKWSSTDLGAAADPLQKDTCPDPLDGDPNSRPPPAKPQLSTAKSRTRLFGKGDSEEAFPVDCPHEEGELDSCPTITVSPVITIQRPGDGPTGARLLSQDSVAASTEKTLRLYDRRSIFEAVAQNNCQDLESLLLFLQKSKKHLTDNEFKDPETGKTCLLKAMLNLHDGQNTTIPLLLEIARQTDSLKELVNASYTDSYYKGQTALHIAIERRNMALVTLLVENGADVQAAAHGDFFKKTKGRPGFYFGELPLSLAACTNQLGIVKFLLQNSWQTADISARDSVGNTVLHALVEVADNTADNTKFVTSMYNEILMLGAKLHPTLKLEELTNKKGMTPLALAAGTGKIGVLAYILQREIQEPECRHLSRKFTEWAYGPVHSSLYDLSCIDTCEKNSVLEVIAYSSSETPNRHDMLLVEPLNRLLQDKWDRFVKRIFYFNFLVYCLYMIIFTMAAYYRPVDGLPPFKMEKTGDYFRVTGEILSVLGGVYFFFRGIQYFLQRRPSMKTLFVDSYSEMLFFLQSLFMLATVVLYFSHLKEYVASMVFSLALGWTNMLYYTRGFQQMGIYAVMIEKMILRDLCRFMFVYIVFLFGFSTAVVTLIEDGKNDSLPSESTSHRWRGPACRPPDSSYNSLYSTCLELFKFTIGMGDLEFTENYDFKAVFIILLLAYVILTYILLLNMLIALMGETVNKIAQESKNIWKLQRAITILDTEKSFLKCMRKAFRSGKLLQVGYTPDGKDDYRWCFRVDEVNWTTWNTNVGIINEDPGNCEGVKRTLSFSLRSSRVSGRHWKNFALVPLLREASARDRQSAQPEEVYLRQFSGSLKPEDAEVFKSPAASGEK

T1 sequence (P35372 whole entry): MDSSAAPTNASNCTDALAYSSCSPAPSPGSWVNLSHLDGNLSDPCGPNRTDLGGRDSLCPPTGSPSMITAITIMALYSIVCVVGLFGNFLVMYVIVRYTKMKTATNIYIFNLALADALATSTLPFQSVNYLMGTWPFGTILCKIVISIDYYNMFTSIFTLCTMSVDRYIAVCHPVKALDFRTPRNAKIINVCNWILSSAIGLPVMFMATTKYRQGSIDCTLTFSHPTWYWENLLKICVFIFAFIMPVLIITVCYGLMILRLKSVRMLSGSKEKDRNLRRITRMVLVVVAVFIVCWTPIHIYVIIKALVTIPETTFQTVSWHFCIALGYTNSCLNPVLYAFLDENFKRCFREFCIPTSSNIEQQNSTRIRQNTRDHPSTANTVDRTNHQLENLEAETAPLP
Chain of OATP2B1 (O94956 whole entry): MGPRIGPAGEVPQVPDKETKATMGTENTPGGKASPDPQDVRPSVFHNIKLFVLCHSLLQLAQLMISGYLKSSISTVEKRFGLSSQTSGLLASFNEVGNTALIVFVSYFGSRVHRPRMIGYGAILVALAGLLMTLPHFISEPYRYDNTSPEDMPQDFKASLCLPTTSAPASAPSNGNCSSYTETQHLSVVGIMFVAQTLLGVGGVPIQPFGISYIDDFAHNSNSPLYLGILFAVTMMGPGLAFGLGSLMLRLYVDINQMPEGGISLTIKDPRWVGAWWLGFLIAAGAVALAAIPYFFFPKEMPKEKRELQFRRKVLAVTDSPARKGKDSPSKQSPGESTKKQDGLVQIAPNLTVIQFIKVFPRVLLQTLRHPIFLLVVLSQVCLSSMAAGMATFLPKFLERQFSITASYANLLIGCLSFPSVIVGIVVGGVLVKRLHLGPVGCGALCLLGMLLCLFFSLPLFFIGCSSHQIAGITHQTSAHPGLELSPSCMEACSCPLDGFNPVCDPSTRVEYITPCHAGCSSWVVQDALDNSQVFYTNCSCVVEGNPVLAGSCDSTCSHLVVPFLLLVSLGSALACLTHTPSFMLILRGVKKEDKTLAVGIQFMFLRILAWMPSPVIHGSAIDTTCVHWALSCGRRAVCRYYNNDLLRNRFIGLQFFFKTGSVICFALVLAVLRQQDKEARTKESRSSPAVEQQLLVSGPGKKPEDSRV
T2 sequence (P43681 27-627): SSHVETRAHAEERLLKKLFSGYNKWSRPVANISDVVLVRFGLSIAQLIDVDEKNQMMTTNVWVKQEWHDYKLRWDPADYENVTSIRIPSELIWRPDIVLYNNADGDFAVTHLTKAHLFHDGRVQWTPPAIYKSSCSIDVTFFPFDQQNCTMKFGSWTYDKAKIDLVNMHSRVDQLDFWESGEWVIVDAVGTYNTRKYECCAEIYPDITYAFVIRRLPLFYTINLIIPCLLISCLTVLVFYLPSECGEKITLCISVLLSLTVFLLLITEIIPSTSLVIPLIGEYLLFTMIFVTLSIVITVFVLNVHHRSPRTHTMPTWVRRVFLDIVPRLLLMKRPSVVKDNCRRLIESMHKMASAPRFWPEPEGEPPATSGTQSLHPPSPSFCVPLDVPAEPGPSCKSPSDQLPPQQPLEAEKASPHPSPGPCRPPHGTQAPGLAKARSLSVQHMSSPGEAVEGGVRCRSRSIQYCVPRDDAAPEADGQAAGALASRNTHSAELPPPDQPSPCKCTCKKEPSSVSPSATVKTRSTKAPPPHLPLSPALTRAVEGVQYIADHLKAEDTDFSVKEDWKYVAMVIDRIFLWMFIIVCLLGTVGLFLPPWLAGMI
T2 sequence (P17787 26-502): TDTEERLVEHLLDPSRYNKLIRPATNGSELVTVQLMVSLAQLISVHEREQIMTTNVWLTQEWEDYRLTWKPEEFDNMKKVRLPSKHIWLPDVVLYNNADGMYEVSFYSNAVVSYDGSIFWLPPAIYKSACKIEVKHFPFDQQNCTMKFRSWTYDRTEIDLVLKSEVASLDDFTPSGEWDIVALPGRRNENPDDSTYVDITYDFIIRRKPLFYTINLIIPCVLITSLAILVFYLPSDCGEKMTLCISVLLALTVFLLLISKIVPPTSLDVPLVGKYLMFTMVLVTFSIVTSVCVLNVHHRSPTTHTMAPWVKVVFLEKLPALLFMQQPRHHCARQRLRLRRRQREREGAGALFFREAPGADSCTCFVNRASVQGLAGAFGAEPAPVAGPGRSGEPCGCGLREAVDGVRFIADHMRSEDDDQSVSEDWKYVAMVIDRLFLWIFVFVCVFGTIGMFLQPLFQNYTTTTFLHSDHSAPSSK

O=C(Cc1nccc(-n2cc(Cl)c3cc(Cl)cc(Cl)c32)n1)NC1COCC1O (stereo not drawn) [Compound 760]
IC50 ([1]; Table 9, read-out: CYP inhibition IC50 CYP3A-Testosterone): 19.8 µM
Pain relief in SNI ([2]; 3-30 mg/kg PO): pain relief comparable to Pregabalin's high and impairing dose
minimal effective dose ([2]; Rattus norvegicus, po): 3 to 30 mg/kg
Effect on Opioid mu ([3]; up to 10 micromolar): no effect
Effect on NMDA [4]: no effect
Effect on nAChR(a4/b2) [5]: no effect
Effect on COX-1/2 [6]: no effect
Effect on Dopamine D1-D5 [7]: no effect
Effect on Vasopressin 1-2 [8]: no effect
OATP2B1 substrate [9]: not a transporter substrate

O=C(Cc1cncc(-n2cc(Cl)c3cc(Cl)cc(Cl)c32)c1)N[C@@H]1COC[C@H]1O [Compound 661]
IC50 at 0.5 h ([1]; (+)NADPH pre-incubation): 7.36 µM
IC50 at 0.5 h ([1]; (−)NADPH pre-incubation): 10.1 µM
PWT efficacy ([2]; 2 mg/kg PO): although not reaching statistical significance, showed an efficacious trend
Reversal of PWT ([2]; 20 mg/kg PO, 4 hour post-dose): 53%
PWT efficacy ([2]; 20 mg/kg PO, up to 8 hour post-dose): remained statistically significant up to 8 hour post-dose
Reversal of mechanical PWT ([2]; 100 mg/kg oral, 6 hour post-dose): 47.2%
IC50 [3]: 6 µM

O=C(Cc1cc(-n2cc(Cl)c3cc(Cl)cc(Cl)c32)ccc1F)NCCO [Compound 627]
hTRPV1 inhibition without hKv7.2/3 activation [10]: lack of hTRPV1 inhibition-potency gain; also recorded: TRPV1 could not be inhibited even at 100 nM
